Assay results as given in doi:10.1101/2024.08.13.607785v1 (biorxiv, 2024).
Like-named read-outs stand apart in the source and are kept apart here.

Experiments:
Experiment in all cases: biochemical
Set-up in all cases: species or system human cell line lysate
[1] = target: 3-phosphoinositide-dependent protein kinase 1 ; PDPK1 ; O15530 (Homo sapiens, UniProt O15530)
[2] = target: Aurora kinase A ; AURKA ; O14965 (Homo sapiens, UniProt O14965)
[3] = target: BMP-2-inducible protein kinase ; BMP2K ; Q9NSY1 (Homo sapiens, UniProt Q9NSY1)
[4] = target: Casein kinase I isoform delta ; CSNK1D ; P48730 (Homo sapiens, UniProt P48730)
[5] = target: Casein kinase I isoform gamma-1 ; CSNK1G1 ; Q9HCP0 (Homo sapiens, UniProt Q9HCP0)
[6] = target: DNA-dependent protein kinase catalytic subunit ; PRKDC ; P78527 (Homo sapiens, UniProt P78527)
[7] = target: Dual specificity mitogen-activated protein kinase kinase 6 ; MAP2K6 ; P52564 (Homo sapiens, UniProt P52564)
[8] = target: EKC/KEOPS complex subunit TP53RK ; TP53RK ; Q96S44 (Homo sapiens, UniProt Q96S44)
[9] = target: Isoform 2 of Tyrosine-protein kinase Lyn ; LYN ; P07948-2 (Homo sapiens, UniProt P07948)
[10] = target: Isoform 3 of Citron Rho-interacting kinase ; CIT ; O14578-3 (Homo sapiens, UniProt O14578)
[11] = target: Kinase suppressor of Ras 1 ; KSR1 ; Q8IVT5 (Homo sapiens, UniProt Q8IVT5)
[12] = target: Leucine-rich repeat serine/threonine-protein kinase 2 ; LRRK2 ; Q5S007 (Homo sapiens, UniProt Q5S007)
[13] = target: Mitogen-activated protein kinase kinase kinase 3 ; MAP3K3 ; Q99759 (Homo sapiens, UniProt Q99759)
[14] = target: Mitogen-activated protein kinase kinase kinase kinase 5 ; MAP4K5 ; Q9Y4K4 (Homo sapiens, UniProt Q9Y4K4)
[15] = target: Phosphatidylinositol 4,5-bisphosphate 3-kinase catalytic subunit beta ; PIK3CB ; P42338 (Homo sapiens, UniProt P42338)
[16] = target: Receptor-type tyrosine-protein kinase FLT3 ; FLT3 ; P36888 (Homo sapiens, UniProt P36888)
[17] = target: Rho-associated protein kinase 2 ; ROCK2 ; O75116 (Homo sapiens, UniProt O75116)
[18] = target: Serine/threonine-protein kinase 35 ; STK35 ; Q8TDR2 (Homo sapiens, UniProt Q8TDR2)
[19] = target: Serine/threonine-protein kinase D2 ; PRKD2 ; Q9BZL6 (Homo sapiens, UniProt Q9BZL6)
[20] = target: Serine/threonine-protein kinase PAK 4 ; PAK4 ; O96013 (Homo sapiens, UniProt O96013)
[21] = target: Serine/threonine-protein kinase ULK1 ; ULK1 ; O75385 (Homo sapiens, UniProt O75385)
[22] = target: Tyrosine-protein kinase JAK2 ; JAK2 ; O60674 (Homo sapiens, UniProt O60674)
[23] = target: Tyrosine-protein kinase Lyn ; LYN ; P07948 (Homo sapiens, UniProt P07948)
[24] = read-out: BAY-1143572 (10 µM) / %Intensity relative to DMSO
[25] = read-out: BAY-1251152 (10 µM) / %Intensity relative to DMSO

EKC/KEOPS complex subunit TP53RK ; TP53RK ; Q96S44, sequence (Q96S44 whole entry, canonical isoform, one chain of several): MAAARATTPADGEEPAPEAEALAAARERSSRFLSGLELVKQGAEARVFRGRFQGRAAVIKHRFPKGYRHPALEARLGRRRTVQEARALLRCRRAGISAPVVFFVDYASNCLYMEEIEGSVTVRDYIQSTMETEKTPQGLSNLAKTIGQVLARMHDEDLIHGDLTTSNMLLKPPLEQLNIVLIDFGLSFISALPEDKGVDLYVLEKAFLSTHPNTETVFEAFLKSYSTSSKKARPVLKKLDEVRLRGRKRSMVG
Leucine-rich repeat serine/threonine-protein kinase 2 ; LRRK2 ; Q5S007, sequence (Q5S007 whole entry, one chain of several): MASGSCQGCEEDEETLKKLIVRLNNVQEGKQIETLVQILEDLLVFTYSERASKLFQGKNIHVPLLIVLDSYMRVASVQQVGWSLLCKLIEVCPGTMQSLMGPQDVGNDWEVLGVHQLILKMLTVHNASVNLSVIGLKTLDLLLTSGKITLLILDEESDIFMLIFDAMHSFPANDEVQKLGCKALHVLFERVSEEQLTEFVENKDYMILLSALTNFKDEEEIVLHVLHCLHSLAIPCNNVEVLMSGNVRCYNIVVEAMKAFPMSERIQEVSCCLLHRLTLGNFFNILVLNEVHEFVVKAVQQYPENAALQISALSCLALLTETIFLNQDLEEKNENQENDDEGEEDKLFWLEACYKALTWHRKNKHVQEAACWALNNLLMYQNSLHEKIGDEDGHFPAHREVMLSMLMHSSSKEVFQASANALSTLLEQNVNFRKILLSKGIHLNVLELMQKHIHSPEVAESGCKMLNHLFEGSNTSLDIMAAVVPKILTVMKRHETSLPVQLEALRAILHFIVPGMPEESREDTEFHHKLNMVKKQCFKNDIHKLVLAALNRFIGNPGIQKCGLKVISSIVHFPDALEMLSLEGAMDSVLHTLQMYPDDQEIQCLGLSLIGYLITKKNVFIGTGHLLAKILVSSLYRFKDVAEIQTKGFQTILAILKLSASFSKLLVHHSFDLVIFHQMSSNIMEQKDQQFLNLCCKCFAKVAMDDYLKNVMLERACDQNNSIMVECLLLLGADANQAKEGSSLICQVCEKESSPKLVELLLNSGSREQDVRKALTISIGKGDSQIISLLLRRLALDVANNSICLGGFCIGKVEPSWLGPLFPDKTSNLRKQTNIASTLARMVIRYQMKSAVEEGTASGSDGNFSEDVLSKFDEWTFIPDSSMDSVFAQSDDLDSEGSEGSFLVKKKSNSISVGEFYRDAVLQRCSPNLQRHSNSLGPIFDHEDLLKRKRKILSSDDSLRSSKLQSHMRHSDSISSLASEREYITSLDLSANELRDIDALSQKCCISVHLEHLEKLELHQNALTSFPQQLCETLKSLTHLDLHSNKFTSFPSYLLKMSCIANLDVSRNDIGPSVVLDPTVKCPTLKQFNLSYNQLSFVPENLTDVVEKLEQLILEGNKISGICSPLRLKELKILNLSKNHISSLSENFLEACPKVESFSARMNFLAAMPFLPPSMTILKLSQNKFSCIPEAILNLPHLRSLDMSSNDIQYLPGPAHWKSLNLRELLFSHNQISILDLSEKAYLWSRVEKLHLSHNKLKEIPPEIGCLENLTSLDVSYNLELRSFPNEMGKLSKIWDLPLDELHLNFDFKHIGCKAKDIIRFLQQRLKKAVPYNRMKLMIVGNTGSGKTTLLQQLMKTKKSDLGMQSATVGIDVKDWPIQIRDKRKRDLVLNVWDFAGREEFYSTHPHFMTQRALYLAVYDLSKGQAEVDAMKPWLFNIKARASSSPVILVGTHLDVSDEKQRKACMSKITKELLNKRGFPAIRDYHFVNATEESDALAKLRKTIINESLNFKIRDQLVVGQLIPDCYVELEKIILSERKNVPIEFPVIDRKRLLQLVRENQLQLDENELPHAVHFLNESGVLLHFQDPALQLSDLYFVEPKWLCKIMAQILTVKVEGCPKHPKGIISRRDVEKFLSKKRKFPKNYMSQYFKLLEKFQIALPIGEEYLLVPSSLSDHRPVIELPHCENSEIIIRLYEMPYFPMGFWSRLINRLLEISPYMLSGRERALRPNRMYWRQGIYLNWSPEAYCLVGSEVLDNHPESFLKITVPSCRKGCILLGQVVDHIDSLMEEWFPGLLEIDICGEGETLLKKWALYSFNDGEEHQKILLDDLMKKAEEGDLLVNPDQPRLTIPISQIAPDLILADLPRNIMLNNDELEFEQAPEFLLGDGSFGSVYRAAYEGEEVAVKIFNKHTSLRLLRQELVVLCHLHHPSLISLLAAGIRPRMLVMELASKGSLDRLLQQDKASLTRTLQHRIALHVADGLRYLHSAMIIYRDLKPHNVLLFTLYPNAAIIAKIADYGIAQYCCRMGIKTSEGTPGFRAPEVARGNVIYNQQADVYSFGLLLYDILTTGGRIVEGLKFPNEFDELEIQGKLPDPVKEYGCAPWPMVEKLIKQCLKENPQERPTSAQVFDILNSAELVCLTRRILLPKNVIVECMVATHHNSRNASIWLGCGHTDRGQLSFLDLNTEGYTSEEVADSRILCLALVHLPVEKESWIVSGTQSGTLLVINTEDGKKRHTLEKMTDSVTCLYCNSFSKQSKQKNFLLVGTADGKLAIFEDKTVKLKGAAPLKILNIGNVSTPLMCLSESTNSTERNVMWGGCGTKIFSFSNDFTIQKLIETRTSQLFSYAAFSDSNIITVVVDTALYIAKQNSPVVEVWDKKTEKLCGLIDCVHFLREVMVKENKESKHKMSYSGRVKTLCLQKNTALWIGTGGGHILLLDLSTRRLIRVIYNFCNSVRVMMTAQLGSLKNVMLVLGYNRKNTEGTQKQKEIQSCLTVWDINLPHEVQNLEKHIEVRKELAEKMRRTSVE
Aurora kinase A ; AURKA ; O14965, sequence (O14965 whole entry): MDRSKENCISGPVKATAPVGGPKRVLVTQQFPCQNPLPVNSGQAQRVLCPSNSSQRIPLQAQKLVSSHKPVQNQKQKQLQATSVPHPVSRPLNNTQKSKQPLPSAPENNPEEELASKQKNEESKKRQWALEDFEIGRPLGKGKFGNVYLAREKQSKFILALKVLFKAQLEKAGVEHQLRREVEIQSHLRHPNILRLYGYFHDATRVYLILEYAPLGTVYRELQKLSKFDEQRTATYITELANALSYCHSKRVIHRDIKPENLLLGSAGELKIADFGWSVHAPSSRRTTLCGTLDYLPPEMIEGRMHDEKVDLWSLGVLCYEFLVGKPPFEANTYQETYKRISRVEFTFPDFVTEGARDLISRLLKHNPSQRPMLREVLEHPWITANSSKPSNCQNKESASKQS
Isoform 2 of Tyrosine-protein kinase Lyn ; LYN ; P07948-2, sequence (P07948 whole entry, canonical isoform): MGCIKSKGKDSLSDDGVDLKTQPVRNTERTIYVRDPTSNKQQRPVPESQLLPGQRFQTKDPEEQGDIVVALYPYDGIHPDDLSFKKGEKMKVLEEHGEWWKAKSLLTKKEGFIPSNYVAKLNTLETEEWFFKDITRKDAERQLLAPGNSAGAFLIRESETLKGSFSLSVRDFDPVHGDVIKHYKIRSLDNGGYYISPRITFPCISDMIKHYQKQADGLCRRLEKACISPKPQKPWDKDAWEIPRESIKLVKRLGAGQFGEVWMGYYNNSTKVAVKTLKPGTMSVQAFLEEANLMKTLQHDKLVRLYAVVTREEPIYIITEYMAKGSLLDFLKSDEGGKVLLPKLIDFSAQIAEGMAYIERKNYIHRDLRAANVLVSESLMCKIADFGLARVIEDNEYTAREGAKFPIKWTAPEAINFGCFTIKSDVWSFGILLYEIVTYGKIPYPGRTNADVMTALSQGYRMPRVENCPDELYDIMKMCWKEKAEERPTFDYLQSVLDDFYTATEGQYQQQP
Tyrosine-protein kinase Lyn ; LYN ; P07948, sequence (P07948 whole entry, one chain of several): as the sequence (P07948 whole entry, canonical isoform) above
Kinase suppressor of Ras 1 ; KSR1 ; Q8IVT5, sequence (Q8IVT5 whole entry): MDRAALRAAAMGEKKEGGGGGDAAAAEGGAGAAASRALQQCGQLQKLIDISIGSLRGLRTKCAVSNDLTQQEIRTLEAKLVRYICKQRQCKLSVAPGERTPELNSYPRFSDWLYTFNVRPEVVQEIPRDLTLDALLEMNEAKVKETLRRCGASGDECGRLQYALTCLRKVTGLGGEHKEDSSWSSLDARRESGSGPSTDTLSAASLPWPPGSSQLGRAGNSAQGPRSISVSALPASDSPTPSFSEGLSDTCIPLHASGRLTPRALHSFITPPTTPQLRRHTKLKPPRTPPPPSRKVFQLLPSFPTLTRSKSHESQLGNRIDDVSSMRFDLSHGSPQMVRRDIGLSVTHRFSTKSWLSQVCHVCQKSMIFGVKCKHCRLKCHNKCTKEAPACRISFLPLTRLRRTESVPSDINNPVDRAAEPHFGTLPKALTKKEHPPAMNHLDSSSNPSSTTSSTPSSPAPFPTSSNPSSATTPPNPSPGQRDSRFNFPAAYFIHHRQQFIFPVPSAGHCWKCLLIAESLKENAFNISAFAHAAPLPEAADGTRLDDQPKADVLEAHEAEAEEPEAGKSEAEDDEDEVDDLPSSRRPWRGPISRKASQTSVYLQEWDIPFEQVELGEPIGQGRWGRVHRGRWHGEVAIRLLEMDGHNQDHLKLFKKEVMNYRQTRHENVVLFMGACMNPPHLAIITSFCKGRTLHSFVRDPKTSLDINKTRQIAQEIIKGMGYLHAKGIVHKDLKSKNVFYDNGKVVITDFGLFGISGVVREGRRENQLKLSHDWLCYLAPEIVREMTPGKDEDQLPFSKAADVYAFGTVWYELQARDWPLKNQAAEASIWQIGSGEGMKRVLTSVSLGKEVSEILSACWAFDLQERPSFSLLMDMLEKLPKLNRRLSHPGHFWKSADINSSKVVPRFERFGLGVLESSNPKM
Dual specificity mitogen-activated protein kinase kinase 6 ; MAP2K6 ; P52564, sequence (P52564 whole entry): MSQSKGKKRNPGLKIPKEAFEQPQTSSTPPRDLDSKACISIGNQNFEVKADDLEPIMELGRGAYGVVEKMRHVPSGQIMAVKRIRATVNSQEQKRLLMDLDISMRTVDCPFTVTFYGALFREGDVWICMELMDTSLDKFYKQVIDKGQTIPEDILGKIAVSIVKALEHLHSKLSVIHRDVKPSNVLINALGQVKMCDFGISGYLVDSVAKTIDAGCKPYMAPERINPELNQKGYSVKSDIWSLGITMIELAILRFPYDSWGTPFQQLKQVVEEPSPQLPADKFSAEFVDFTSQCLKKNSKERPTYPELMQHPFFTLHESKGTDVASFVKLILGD

Compound: COc1cc(F)ccc1-c1ncnc(Nc2cccc(C[S@](C)(=N)=O)c2)n1 [BAY-1143572]
- remaining activity at 10 µM [1, 24]: 114%
- remaining activity at 10 µM [2, 24]: 112%
- remaining activity at 10 µM [3, 24]: 88.5%
- remaining activity at 10 µM [4, 24]: 121%
- remaining activity at 10 µM [5, 24]: 175%
- remaining activity at 10 µM [6, 24]: 106%
- remaining activity at 10 µM [7, 24]: 142%
- remaining activity at 10 µM [8, 24]: 122%
- remaining activity at 10 µM [9, 24]: 102%
- remaining activity at 10 µM [10, 24]: 99.1%
- remaining activity at 10 µM [11, 24]: 131%
- remaining activity at 10 µM [12, 24]: 109%
- remaining activity at 10 µM [13, 24]: 120%
- remaining activity at 10 µM [14, 24]: 97.6%
- remaining activity at 10 µM [15, 24]: 83.7%
- remaining activity at 10 µM [16, 24]: 70.5%
- remaining activity at 10 µM [17, 24]: 120%
- remaining activity at 10 µM [18, 24]: 115%
- remaining activity at 10 µM [19, 24]: 99.6%
- remaining activity at 10 µM [20, 24]: 105%
- remaining activity at 10 µM [21, 24]: 132%
- remaining activity at 10 µM [22, 24]: 95.1%
- remaining activity at 10 µM [23, 24]: 82%

Compound: COc1cc(F)ccc1-c1cc(Nc2cc(CS(C)(=N)=O)ccn2)ncc1F (stereo not shown) [BAY-1251152]
- remaining activity at 10 µM [1, 25]: 104%
- remaining activity at 10 µM [2, 25]: 98.6%
- remaining activity at 10 µM [3, 25]: 84.7%
- remaining activity at 10 µM [4, 25]: 117%
- remaining activity at 10 µM [5, 25]: 163%
- remaining activity at 10 µM [6, 25]: 107%
- remaining activity at 10 µM [7, 25]: 123%
- remaining activity at 10 µM [8, 25]: 118%
- remaining activity at 10 µM [9, 25]: 107%
- remaining activity at 10 µM [10, 25]: 89.3%
- remaining activity at 10 µM [11, 25]: 146%
- remaining activity at 10 µM [12, 25]: 107%
- remaining activity at 10 µM [13, 25]: 114%
- remaining activity at 10 µM [14, 25]: 55.3%
- remaining activity at 10 µM [15, 25]: 57.7%
- remaining activity at 10 µM [16, 25]: 84.2%
- remaining activity at 10 µM [17, 25]: 110%
- remaining activity at 10 µM [18, 25]: 113%
- remaining activity at 10 µM [19, 25]: 96.3%
- remaining activity at 10 µM [20, 25]: 110%
- remaining activity at 10 µM [21, 25]: 145%
- remaining activity at 10 µM [22, 25]: 95.9%
- remaining activity at 10 µM [23, 25]: 79.4%
